Source: US9758529B2, “Fused dihydro-4H-pyrazolo[5,1-C][1,4]oxazinyl compounds and analogs for treating CNS disorders” (Sunovion Pharmaceuticals Inc., priority 2015, dated 2017)

System: mice
Test: Neuropharmacological Assay (SmartCube)
Type: in vivo
Settings: i.p. 15 min before behavioral test; 3 doses, most efficacious dose(s) presented

Cl.N[C@H](CC1CCC1)C1OCCn2nc3ccccc3c21 (stereo partly drawn) [Compound 41, (1R)-2-cyclobutyl-1-(3,4-dihydro-1H-[1,4]oxazino[4,3-b]indazol-1-yl)ethan-1-aminium]
AD: ADHD (probability of class match): + (LOQ≦ + <5%) | AG: analgesic (probability of class match): + (LOQ≦ + <5%) | AX: anxiolytic (probability of class match): + (LOQ≦ + <5%) | CE: cognitive enhancer (probability of class match): + (LOQ≦ + <5%) | DP: anti-depressant (probability of class match): + (LOQ≦ + <5%) | HA: hallucinogen (probability of class match): + (LOQ≦ + <5%) | MS: mood stabilizer (probability of class match): + (LOQ≦ + <5%) | PS: anti-psychotic (probability of class match): + (LOQ≦ + <5%) | SD: sedative hypnotic (probability of class match): + (LOQ≦ + <5%) | UN: uncharacterized CNS activity (probability of class match): + (LOQ≦ + <5%) | XG: anxiogenic (probability of class match): + (LOQ≦ + <5%)

Cl.c1ccc2c3n(nc2c1)CCOC3[C@H]1CNCCO1 (stereo partly drawn) [Compound 42, (2R)-2-(3,4-dihydro-1H-[1,4]oxazino[4,3-b]indazol-1-yl)morpholin-4-ium chloride]
AD: ADHD (probability of class match): + (LOQ≦ + <5%) | AG: analgesic (probability of class match): + (LOQ≦ + <5%) | AX: anxiolytic (probability of class match): + (LOQ≦ + <5%) | CE: cognitive enhancer (probability of class match): + (LOQ≦ + <5%) | DP: anti-depressant (probability of class match): + (LOQ≦ + <5%) | HA: hallucinogen (probability of class match): + (LOQ≦ + <5%) | MS: mood stabilizer (probability of class match): + (LOQ≦ + <5%) | PS: anti-psychotic (probability of class match): + (LOQ≦ + <5%) | SD: sedative hypnotic (probability of class match): + (LOQ≦ + <5%) | UN: uncharacterized CNS activity (probability of class match): + (LOQ≦ + <5%) | XG: anxiogenic (probability of class match): + (LOQ≦ + <5%)

Cl.c1ccc2c3n(nc2c1)CCOC3[C@@H]1COCCN1 (stereo partly drawn) [Compound 43, (3S)-3-(3,4-dihydro-1H-[1,4]oxazino[4,3-b]indazol-1-yl)morpholin-4-ium chloride]
AD: ADHD (probability of class match): + (LOQ≦ + <5%) | AG: analgesic (probability of class match): + (LOQ≦ + <5%) | AX: anxiolytic (probability of class match): + (LOQ≦ + <5%) | CE: cognitive enhancer (probability of class match): + (LOQ≦ + <5%) | DP: anti-depressant (probability of class match): + (LOQ≦ + <5%) | HA: hallucinogen (probability of class match): + (LOQ≦ + <5%) | MS: mood stabilizer (probability of class match): + (LOQ≦ + <5%) | PS: anti-psychotic (probability of class match): + (LOQ≦ + <5%) | SD: sedative hypnotic (probability of class match): + (LOQ≦ + <5%) | UN: uncharacterized CNS activity (probability of class match): + (LOQ≦ + <5%) | XG: anxiogenic (probability of class match): + (LOQ≦ + <5%)

Cl.c1ccc2c3n(nc2c1)CCOC31CCNC1 (stereo not drawn) [Compound 44, 3′,4′-dihydrospiro[pyrrolidine-3,1′-[1,4]oxazino[4,3-b]indazol]-1-ium chloride]
AD: ADHD (probability of class match): + (LOQ≦ + <5%) | AG: analgesic (probability of class match): ++ (5%≦ ++ <25%) | AX: anxiolytic (probability of class match): +++ (25%≦ +++ <50%) | CE: cognitive enhancer (probability of class match): ++ (5%≦ ++ <25%) | DP: anti-depressant (probability of class match): ++ (5%≦ ++ <25%) | HA: hallucinogen (probability of class match): + (LOQ≦ + <5%) | MS: mood stabilizer (probability of class match): + (LOQ≦ + <5%) | PS: anti-psychotic (probability of class match): ++ (5%≦ ++ <25%) | SD: sedative hypnotic (probability of class match): + (LOQ≦ + <5%) | UN: uncharacterized CNS activity (probability of class match): + (LOQ≦ + <5%) | XG: anxiogenic (probability of class match): + (LOQ≦ + <5%)

CCN(C)C[C@@H]1OCCn2nc3ccccc3c21.Cl [Compound 49, N—(((S)-3,4-dihydro-1H-[1,4]oxazino[4,3-b]indazol-1-yl)methyl)-N-methylethanaminium chloride]
AD: ADHD (probability of class match): + (LOQ≦ + <5%) | AG: analgesic (probability of class match): +++ (25%≦ +++ <50%) | AX: anxiolytic (probability of class match): ++ (5%≦ ++ <25%) | CE: cognitive enhancer (probability of class match): ++ (5%≦ ++ <25%) | DP: anti-depressant (probability of class match): ++ (5%≦ ++ <25%) | HA: hallucinogen (probability of class match): + (LOQ≦ + <5%) | MS: mood stabilizer (probability of class match): + (LOQ≦ + <5%) | PS: anti-psychotic (probability of class match): + (LOQ≦ + <5%) | SD: sedative hypnotic (probability of class match): ++ (5%≦ ++ <25%) | UN: uncharacterized CNS activity (probability of class match): + (LOQ≦ + <5%) | XG: anxiogenic (probability of class match): + (LOQ≦ + <5%)

CCN(C)C[C@H]1OCCn2nc3ccccc3c21.Cl [Compound 50, N—(((R)-3,4-dihydro-1H-[1,4]oxazino[4,3-b]indazol-1-yl)methyl)-N-methylethanaminium chloride]
AD: ADHD (probability of class match): ++ (5%≦ ++ <25%) | AG: analgesic (probability of class match): + (LOQ≦ + <5%) | AX: anxiolytic (probability of class match): +++ (25%≦ +++ <50%) | CE: cognitive enhancer (probability of class match): + (LOQ≦ + <5%) | DP: anti-depressant (probability of class match): ++++ (50%≦ ++++) | HA: hallucinogen (probability of class match): ++ (5%≦ ++ <25%) | MS: mood stabilizer (probability of class match): + (LOQ≦ + <5%) | PS: anti-psychotic (probability of class match): + (LOQ≦ + <5%) | SD: sedative hypnotic (probability of class match): + (LOQ≦ + <5%) | UN: uncharacterized CNS activity (probability of class match): + (LOQ≦ + <5%) | XG: anxiogenic (probability of class match): + (LOQ≦ + <5%)

CNCC1OCCCn2nc3ccccc3c21.Cl (stereo not drawn) [Compound 51, 1-(4,5-dihydro-1H,3H-[1,4]oxazepino[4,3-b]indazol-1-yl)-N-methylmethanaminium chloride]
AD: ADHD (probability of class match): ++ (5%≦ ++ <25%) | AG: analgesic (probability of class match): + (LOQ≦ + <5%) | AX: anxiolytic (probability of class match): ++ (5%≦ ++ <25%) | CE: cognitive enhancer (probability of class match): + (LOQ≦ + <5%) | DP: anti-depressant (probability of class match): +++ (25%≦ +++ <50%) | HA: hallucinogen (probability of class match): + (LOQ≦ + <5%) | MS: mood stabilizer (probability of class match): + (LOQ≦ + <5%) | PS: anti-psychotic (probability of class match): + (LOQ≦ + <5%) | SD: sedative hypnotic (probability of class match): + (LOQ≦ + <5%) | UN: uncharacterized CNS activity (probability of class match): + (LOQ≦ + <5%) | XG: anxiogenic (probability of class match): + (LOQ≦ + <5%)

CN(C)CC1OCCCn2nc3ccccc3c21.Cl (stereo not drawn) [Compound 52, 1-(4,5-dihydro-1H,3H-[1,4]oxazepino[4,3-b]indazol-1-yl)-N,N-dimethylmethanaminium chloride]
AD: ADHD (probability of class match): + (LOQ≦ + <5%) | AG: analgesic (probability of class match): + (LOQ≦ + <5%) | AX: anxiolytic (probability of class match): ++ (5%≦ ++ <25%) | CE: cognitive enhancer (probability of class match): + (LOQ≦ + <5%) | DP: anti-depressant (probability of class match): ++ (5%≦ ++ <25%) | HA: hallucinogen (probability of class match): + (LOQ≦ + <5%) | MS: mood stabilizer (probability of class match): + (LOQ≦ + <5%) | PS: anti-psychotic (probability of class match): + (LOQ≦ + <5%) | SD: sedative hypnotic (probability of class match): + (LOQ≦ + <5%) | UN: uncharacterized CNS activity (probability of class match): ++ (5%≦ ++ <25%) | XG: anxiogenic (probability of class match): + (LOQ≦ + <5%)

CCN(C)CC1OCCCn2nc3ccccc3c21.Cl (stereo not drawn) [Compound 53, N-((4,5-dihydro-1H,3H-[1,4]oxazepino[4,3-b]indazol-1-yl)methyl)-N-methylethanaminium chloride]
AD: ADHD (probability of class match): + (LOQ≦ + <5%) | AG: analgesic (probability of class match): + (LOQ≦ + <5%) | AX: anxiolytic (probability of class match): ++ (5%≦ ++ <25%) | CE: cognitive enhancer (probability of class match): + (LOQ≦ + <5%) | DP: anti-depressant (probability of class match): ++ (5%≦ ++ <25%) | HA: hallucinogen (probability of class match): + (LOQ≦ + <5%) | MS: mood stabilizer (probability of class match): + (LOQ≦ + <5%) | PS: anti-psychotic (probability of class match): + (LOQ≦ + <5%) | SD: sedative hypnotic (probability of class match): ++ (5%≦ ++ <25%) | UN: uncharacterized CNS activity (probability of class match): ++ (5%≦ ++ <25%) | XG: anxiogenic (probability of class match): + (LOQ≦ + <5%)

CC(C)N(C)CC1OCCCn2nc3ccccc3c21.Cl (stereo not drawn) [Compound 54, N-((4,5-dihydro-1H,3H-[1,4]oxazepino[4,3-b]indazol-1-yl)methyl)-N-methylpropan-2-aminium chloride]
AD: ADHD (probability of class match): + (LOQ≦ + <5%) | AG: analgesic (probability of class match): + (LOQ≦ + <5%) | AX: anxiolytic (probability of class match): ++ (5%≦ ++ <25%) | CE: cognitive enhancer (probability of class match): + (LOQ≦ + <5%) | DP: anti-depressant (probability of class match): + (LOQ≦ + <5%) | HA: hallucinogen (probability of class match): + (LOQ≦ + <5%) | MS: mood stabilizer (probability of class match): + (LOQ≦ + <5%) | PS: anti-psychotic (probability of class match): + (LOQ≦ + <5%) | SD: sedative hypnotic (probability of class match): + (LOQ≦ + <5%) | UN: uncharacterized CNS activity (probability of class match): + (LOQ≦ + <5%) | XG: anxiogenic (probability of class match): + (LOQ≦ + <5%)

CN(CC1OCCCn2nc3ccccc3c21)C1CCC1.Cl (stereo not drawn) [Compound 55, N-((4,5-dihydro-1H,3H-[1,4]oxazepino[4,3-b]indazol-1-yl)methyl)-N-methylcyclobutanaminium chloride]
AD: ADHD (probability of class match): + (LOQ≦ + <5%) | AG: analgesic (probability of class match): + (LOQ≦ + <5%) | AX: anxiolytic (probability of class match): ++ (5%≦ ++ <25%) | CE: cognitive enhancer (probability of class match): + (LOQ≦ + <5%) | DP: anti-depressant (probability of class match): + (LOQ≦ + <5%) | HA: hallucinogen (probability of class match): + (LOQ≦ + <5%) | MS: mood stabilizer (probability of class match): + (LOQ≦ + <5%) | PS: anti-psychotic (probability of class match): + (LOQ≦ + <5%) | SD: sedative hypnotic (probability of class match): + (LOQ≦ + <5%) | UN: uncharacterized CNS activity (probability of class match): +++ (25%≦ +++ <50%) | XG: anxiogenic (probability of class match): + (LOQ≦ + <5%)

Cl.NCC1OCCCn2nc3ccccc3c21 (stereo not drawn) [Compound 56, (4,5-dihydro-1H,3H-[1,4]oxazepino[4,3-b]indazol-1-yl)methanaminium chloride]
AD: ADHD (probability of class match): + (LOQ≦ + <5%) | AG: analgesic (probability of class match): + (LOQ≦ + <5%) | AX: anxiolytic (probability of class match): + (LOQ≦ + <5%) | CE: cognitive enhancer (probability of class match): + (LOQ≦ + <5%) | DP: anti-depressant (probability of class match): + (LOQ≦ + <5%) | HA: hallucinogen (probability of class match): + (LOQ≦ + <5%) | MS: mood stabilizer (probability of class match): + (LOQ≦ + <5%) | PS: anti-psychotic (probability of class match): + (LOQ≦ + <5%) | SD: sedative hypnotic (probability of class match): + (LOQ≦ + <5%) | UN: uncharacterized CNS activity (probability of class match): + (LOQ≦ + <5%) | XG: anxiogenic (probability of class match): + (LOQ≦ + <5%)
